PubChem BioAssay AID1963444 (Molecular Pharmacology Branch, DTP, NCI, 2024)

Test system: HSSY-II complex spheroid growth, percent test/control
Assay: Anticancer human tumor HSSY-II cell line growth inhibition [Asc];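 also: spheroids exposed to drug for 7 days before reading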
Details: for IC50: curve of first compound; for viability, T/C: stronger effect = lower value
Summary of the method: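 Concentration series start at each agent's clinical Cmax, or at 10 microM when none is established, and drop in half-log steps; agents are applied alone or together to complex spheroids built with HUVEC and hMSC.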

[1] = second compound 0.1 µM, first compound 0.00316 µM
[2] = second compound 0.1 µM, first compound 0.01 µM
[3] = second compound 0.1 µM, first compound 0.0316 µM
[4] = second compound 0.1 µM, first compound 0.1 µM
[5] = second compound 0.1 µM, first compound 0.316 µM
[6] = second compound 0.1 µM, first compound 1 µM
[7] = second compound 0.316 µM, first compound 0.00316 µM
[8] = second compound 0.316 µM, first compound 0.01 µM
[9] = second compound 0.316 µM, first compound 0.0316 µM
[10] = second compound 0.316 µM, first compound 0.1 µM
[11] = second compound 0.316 µM, first compound 0.316 µM
[12] = second compound 0.316 µM, first compound 1 µM
[13] = second compound 1 µM, first compound 0.00316 µM
[14] = second compound 1 µM, first compound 0.01 µM
[15] = second compound 1 µM, first compound 0.0316 µM
[16] = second compound 1 µM, first compound 0.1 µM
[17] = second compound 1 µM, first compound 0.316 µM
[18] = second compound 1 µM, first compound 1 µM
[19] = second compound 3.16 µM, first compound 0.00316 µM
[20] = second compound 3.16 µM, first compound 0.01 µM
[21] = second compound 3.16 µM, first compound 0.0316 µM
[22] = second compound 3.16 µM, first compound 0.1 µM
[23] = second compound 3.16 µM, first compound 0.316 µM
[24] = second compound 3.16 µM, first compound 1 µM
[25] = second compound 10 µM, first compound 0.00316 µM
[26] = second compound 10 µM, first compound 0.01 µM
[27] = second compound 10 µM, first compound 0.0316 µM
[28] = second compound 10 µM, first compound 0.1 µM
[29] = second compound 10 µM, first compound 0.316 µM
[30] = second compound 10 µM, first compound 1 µM

| SMILES | IC50 (second compound 0.1 µM) [nM] | IC50 (second compound 0.316 µM) [nM] | IC50 (second compound 1 µM) [nM] | IC50 (second compound 3.16 µM) [nM] | IC50 (second compound 10 µM) [nM] | viability, T/C [1] [%] | viability, T/C [2] [%] | viability, T/C [3] [%] | viability, T/C [4] [%] | viability, T/C [5] [%] | viability, T/C [6] [%] | viability, T/C [7] [%] | viability, T/C [8] [%] | viability, T/C [9] [%] | viability, T/C [10] [%] | viability, T/C [11] [%] | viability, T/C [12] [%] | viability, T/C [13] [%] | viability, T/C [14] [%] | viability, T/C [15] [%] | further results |
| --- | --- | --- | --- | --- | --- | --- | --- | --- | --- | --- | --- | --- | --- | --- | --- | --- | --- | --- | --- | --- | --- |
| CCN1CCN(Cc2ccc(Nc3ncc(F)c(-c4cc(F)c5nc(C)n(C(C)C)c5c4)n3)nc2)CC1 + Cc1c(S(C)(=O)=O)c(-c2cc(F)cc(N3CCN(c4ccc(NS(=O)(=O)c5ccc(NC(CCN6CCC(C(=O)OCCCP(=O)(O)O)CC6)CSc6ccccc6)c(S(=O)(=O)C(F)(F)F)c5)cc4)CC3)c2)c(-c2ccc(Cl)cc2)n1C(C)C | 259 | 146 | 135 | 112 | 69.9 | 90.8 | 105 | 71.5 | 68.5 | 47.5 | 26.7 | 92.4 | 88.2 | 75.6 | 52.8 | 40 | 20.7 | 94.7 | 83.1 | 70 | viability, T/C [16]: 57.6%; viability, T/C [17]: 34.8%; viability, T/C [18]: 24.9%; viability, T/C [19]: 80.9%; viability, T/C [20]: 91.8%; viability, T/C [21]: 74.2%; viability, T/C [22]: 49%; viability, T/C [23]: 38.2%; viability, T/C [24]: 23.1%; viability, T/C [25]: 83.9%; viability, T/C [26]: 81.3%; viability, T/C [27]: 60.7%; viability, T/C [28]: 41.6%; viability, T/C [29]: 40.3%; viability, T/C [30]: 24.9% |
| COc1c(OCCCN2CCOCC2)ccc2c3n(c(=NC(=O)c4cnc(N)nc4)nc12)CCN3 + Cc1c(S(C)(=O)=O)c(-c2cc(F)cc(N3CCN(c4ccc(NS(=O)(=O)c5ccc(NC(CCN6CCC(C(=O)OCCCP(=O)(O)O)CC6)CSc6ccccc6)c(S(=O)(=O)C(F)(F)F)c5)cc4)CC3)c2)c(-c2ccc(Cl)cc2)n1C(C)C | 37.6 | 31.7 | 25.4 | 26.3 | 26.4 | 86.7 | 72.9 | 50.5 | 35.9 | 20.9 | 10.2 | 86.4 | 74.1 | 48.5 | 28.6 | 19.6 | 8.57 | 90.1 | 67 | 45 | viability, T/C [16]: 30.4%; viability, T/C [17]: 17.7%; viability, T/C [18]: 7.86%; viability, T/C [19]: 82.1%; viability, T/C [20]: 67.9%; viability, T/C [21]: 42.4%; viability, T/C [22]: 34.5%; viability, T/C [23]: 16.2%; viability, T/C [24]: 6.36%; viability, T/C [25]: 77.6%; viability, T/C [26]: 68.9%; viability, T/C [27]: 42.9%; viability, T/C [28]: 30.7%; viability, T/C [29]: 16.4%; viability, T/C [30]: 3.47% |
